Blank lines part the entries; values can stand above or below the compound they belong to.
Assays:
PxylOR16/PxylOrco [1] = target: T1, PxylOR16/PxylOrco (Plutella xylostella, UniProt V9SFT8); experiment: two-electrode voltage clamp, Xenopus oocytes; format: cell-based; settings: agonist, co-expressed with PxylOrco, holding potential -80 mV, Ringer's buffer
T1 construct: no tag stated; with Odorant receptor coreceptor
T1 sequence (V9SFT8 1-405): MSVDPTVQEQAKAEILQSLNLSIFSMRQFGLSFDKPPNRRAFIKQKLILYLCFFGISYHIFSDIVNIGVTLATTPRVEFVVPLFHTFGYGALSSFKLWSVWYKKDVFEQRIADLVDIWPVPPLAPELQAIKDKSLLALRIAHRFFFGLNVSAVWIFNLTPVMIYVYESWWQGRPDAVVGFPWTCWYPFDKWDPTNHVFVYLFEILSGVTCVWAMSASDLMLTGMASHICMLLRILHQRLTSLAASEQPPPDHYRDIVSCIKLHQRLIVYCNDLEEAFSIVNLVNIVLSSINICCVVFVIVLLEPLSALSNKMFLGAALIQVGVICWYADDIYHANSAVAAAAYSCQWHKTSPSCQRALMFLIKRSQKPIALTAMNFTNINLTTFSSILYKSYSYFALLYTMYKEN
T1 sequence (D0EZE1 1-471 partner): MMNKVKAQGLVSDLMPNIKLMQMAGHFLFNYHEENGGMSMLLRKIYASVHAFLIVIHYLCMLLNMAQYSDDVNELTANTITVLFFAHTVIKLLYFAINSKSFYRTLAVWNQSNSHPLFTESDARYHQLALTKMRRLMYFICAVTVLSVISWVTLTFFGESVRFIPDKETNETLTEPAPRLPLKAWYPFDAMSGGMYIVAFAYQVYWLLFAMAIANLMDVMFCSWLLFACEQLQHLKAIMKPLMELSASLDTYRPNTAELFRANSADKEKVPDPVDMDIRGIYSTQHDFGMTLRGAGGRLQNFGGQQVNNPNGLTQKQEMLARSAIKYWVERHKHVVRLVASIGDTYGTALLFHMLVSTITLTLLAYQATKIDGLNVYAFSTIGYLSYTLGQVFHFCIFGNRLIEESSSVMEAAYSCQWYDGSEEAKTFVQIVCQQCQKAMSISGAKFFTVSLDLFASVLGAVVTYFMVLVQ

PxylOR16/PxylOrco [2] = target: T1, PxylOR16/PxylOrco; experiment: two-electrode voltage clamp, Xenopus oocytes; format: cell-based

SMILES: CCCCCCCCOC(C)=O [octyl acetate]
- inward current response at 10^-4 M (PxylOR16/PxylOrco [1]; weak agonist, 10^-4 M): they also responded weakly to two other volatiles (octyl acetate and 1-heptanol)

- EC50 (PxylOR16/PxylOrco [2]): 17.6 µM
SMILES: CCCCCCC=O [heptanal]

SMILES: CCCCCCCO [1-heptanol]
- inward current response at 10^-4 M (PxylOR16/PxylOrco [1]): they also responded weakly to two other volatiles (octyl acetate and 1-heptanol)

From article PMC10935965, “An odorant receptor mediates the avoidance of Plutella xylostella against parasitoid” (BMC Biology, 2024)
